Source: patent US20230150951A1, “2,5- OR 2,6-DISUBSTITUTED HYDROQUINONE DERIVATIVES WITH AT LEAST ONE CARBOXY, SULFO OR AMIDO GROUP USEFUL AS MEDICAMENTS” (OM PHARMA SA, priority 2020, published 2023)

How the values were obtained:
[1] = system: human retinal endothelial cells (HRECs); assay: Inner blood retinal barrier: HREC monolayer permeability to FITC-dextran; type: cell-based; conditions: for p < 0.05 (HREC permeability versus diabetic milieu): IL-β, after 90 min
Source text: (§1) The mechanisms of actions involved in the anti-permeability effect of the tested treatments were explored by assessing permeability to fluorescent dextran and proinflammatory cytokines production using their mRNA expression levels by RT-PCR.
Inner Blood Retinal Barrier conditions: primary human retinal endothelial cells (HRECs) were obtained from a vial of cryopreserved cells purchased from Innoprot (Vizcay, Spain). These cells were isolated from human retinal tissue of cadaveric eyes digested with 0.1 mg/mL collagenase type I at 37° C. for 1 hour. Then, endothelial cells were finally selected with CD31 antibody-coated magnetic beads (DynaBeads; Dynal, Oslo, Norway). HRECs were thawed in the laboratory and cultured in endothelial basal medium (EBM) containing, 5.5 mM D-glucose, 5% FBS (Fetal Bovine Serum), 100 U/mL penicillin, 100 μg/mL streptomycin, and ECG (Endothelial Cell Growth Supplement) supplement (Innoprot, Vizcay, Spain). Human fibronectin (MerckMillipore, Madrid, Spain) at 5 μg/mL was used for cell attachment. Cells at passages 2-3 will be used for the experiments. For experimentation, HRECs were grown to confluence and then cell culture media was changed to medium supplemented with 1% FBS for 24 h and then exposed to different treatments.
Conditions treatments: The same conditions specified for the experiment in ARPE-19 cells were used.
Measurement of HREC permeability: Permeability in HREC monolayers were obtained on permeable supports at 12×10^5 cells/well (24 wells, PCF filters, Merk Millipore). Inserts were incubated for 48 hours at 37° C. in 5% CO2-air to form the monolayer. At the end, medium was serum depleted 24 h before to proceed with the treatments. The lower chamber was filled with 600 μL of complete EBM medium and the upper chamber with 100 μL of cell suspension in serum depleted (1%).
To detect changes in the permeability, 100 μg/ml of fluorescent FITC-DEXTRAN (Sigma, Madrid, Spain), was added to the upper side of the insert. Aliquots of 200 μL from the basal compartment was read in a SpectraMax Gemini (Molecular Devices, Sunnyvale, Calif.) at a wavelength of excitation/emission 485/528 nm every 30 min. Finally, the concentration of dextran was determined by extrapolation of the fluorescence reads in a standard curve. Each condition was tested in triplicate.

[2] = system: ARPE-19 cells; assay: Outer blood retinal barrier: ARPE-19 monolayer permeability to FITC-dextran; type: cell-based, human; conditions: for p < 0.05 (ARPE19 permeability versus diabetic milieu): IL-β, after 90 min
Source text: as §1
Outer Blood Retinal Barrier conditions: human retinal pigment epithelial cells (RPE) cultures ARPE-19, a spontaneously immortalised human RPE cell line were obtained from American Type Culture Collection (Manassas, Va., USA). ARPE-19 cells and they were cultured in euglycaemic conditions (D-glucose (D-Glc), 5.5 mmol/L) and hyperglycaemic conditions (D-glucose, 25 mmol/L) for 18 days at 37° C. under 5% (vol./vol.) CO2 in medium (DMEM/F12) supplemented with 10% (vol./vol.) FBS (Hyclone; Thermo Fisher Scientific, UT, USA) and 1% (vol./vol.) penicillin/streptomycin (Hyclone; Thermo Fisher Scientific). ARPE-19 cells from passage 20 were used and the medium changed every 3-4 days. For permeability studies, ARPE-19 cells were seeded at 400,000 cells/ml (80,000 RPE cells/well) in 0.33 cm^2 HTS-Transwells (Costar; Corning, N.Y., USA). For real-time PCR, western blot analysis and immunofluorescence cells are seeded at 20,000 cells/ml.
Experimental conditions and treatments: apart from the euglycemic condition, eighteen different conditions were tested in cells cultured under 25 mmol/L D-glucose:
Condition 2) Cells are treated with diabetic milieu 25 mM D-Glucose+vehicle (days 15, 16 and 17 at one application/day) in order to evaluate their effect in preventing the cell damage provoked by the diabetic milieu.
Condition 9) Cells were treated with 25 mM D-Glucose and bevacizumab (0.2 mg/ml) for 72 h (days 15, 16 and 17 at one application/day) to evaluate their potential cytotoxic effects.
Condition 10)=Diabetic milieu; cells were treated with 25 mM D-Glucose+[…] (10 ng/ml)+TNF-α (25 ng/ml)+VEGF (25 ng/ml), for 48 h (days 16 and 17 at one application/day) in order to provoke the disruption of the monolayer.
Condition 17) Cells are treated with diabetic milieu (25 mM D-Glucose+IL-1β (10 ng/ml)+TNF-α (25 ng/ml)+VEGF (25 ng/ml))+bevacizumab (0.2 mg/mL) (days 15, 16 and 17 at one application/day) in order to evaluate their effect in preventing the cell damage provoked by the diabetic milieu.
Measurement of ARPE-19 permeability: The permeability of RPE cells was determined at 18 days by measuring the apical-to basolateral movements of FITC-dextran (40 kDa) (Sigma, St Louis, […]., USA) following a procedure previously reported by Villarroel et al. Exp Eye Res, 2009, 89, 913-920.

[3] = system: human primary cells; assay: BioMap Plus phenotypic profiling in human primary cell-based systems; conditions: 30, 10, 3.3, 1.1 μM
Description: A series of in vitro assays was performed using human primary cell-based assays modeling complex tissue and disease biology of organs (vasculature, immune system, skin, lung) and general tissue biology for phenotypic profiling of compounds in conditions that preserve crosstalk and feedback mechanisms relevant to in vivo outcomes.

[4] = system: DBA/2 mouse strain with STZ induction of diabetes; assay: STZ-induced diabetic retinopathy and nephropathy model in DBA/2 mice; type: in vivo; conditions: one and two weeks, FIG. 9
Description: Therapeutic efficacy of the compounds according to the present invention was assessed using diabetic mouse model using the DBA/2 mouse strain with STZ induction of diabetes and follow diabetic retinopathy including kidney damage. Five weeks after induction of diabetes via low dose STZ injection for 5 consecutive days, the urinary albumin:Cr ratio is […] compared to 36.9 for age-matched controls.
For treatment of diabetic nephropathy, DBA/2 mice were induced with STZ (low dose for 5 consecutive days).
Treatment was performed for four weeks (IV dosing) with weekly assessment of blood glucose and urine albumin/creatinine levels. At the end of the treatment period animals, the following samples were taken: • Blood for measurement of glucose and Blood Urea Nitrogen (BUN) • Blood for measurement of serum creatinine • Urine for final albumin/creatinine ratio. • Kidney was resected and FFPE: Picro-Sirius Red, Masson's Trichrome and H&E staining was carried out to identify areas of fibrosis, along with evidence of Mesangial sclerosis, Arteriolar hyalinosis, Glomerular Basal Membrane (GBM) thickening
To assess compound effect on diabetic retinopathy, animals had weekly images taken via Fundus Camera. Immediately prior to sacrifice, animals were injected with FITC-dextran via tail vein. During sampling, the eyes were sampled and fixed in formalin. Retinal Flatmounts were prepared and examined fluorescently looking at compound effects on vascularity and leakiness of vessels (indicted by high background staining).

[5] = No 3-5: 25 mM D-Gluc + compound 25 μg/mL
[6] = No 6-8: 25 mM D-Gluc + compound 50 μg/mL + VEGF, TNF-α, IL-β (so in the source)
[7] = No 11-13: 25 mM D-Gluc + compound 25 μg/mL + VEGF, TNF-α, IL-β (diabetic milieu)
[8] = No 11-13: compound 25 μg/mL + VEGF, TNF-α
[9] = No 14-16: 25 mM D-Gluc + compound 50 μg/mL + VEGF, TNF-α, IL-β (diabetic milieu)
[10] = No 6-8: 25 mM D-Gluc + compound 50 μg/mL + VEGF, TNF-α, (so in the source)
[11] = No 11-13: 25 mM D-Gluc + compound 25 μg/mL + VEGF, TNF-α, (diabetic milieu)
[12] = No 14-16: 25 mM D-Gluc + compound 50 μg/mL + VEGF, TNF-α, (diabetic milieu)
[13] = No 14-16: compound 50 μg/mL + VEGF, TNF-α

Row | Compound | % permeability HREC [1, 5] [%] | % permeability HREC [1, 6] [%] | % permeability HREC [1, 7] [%] | p < 0.05 (HREC permeability versus diabetic milieu) [1, 8] | % permeability HREC [1, 9] [%] | % permeability ARPE19 [2, 5] [%] | % permeability ARPE19 [2, 10] [%] | % permeability ARPE19 [2, 11] [%] | p < 0.05 (ARPE19 permeability versus diabetic milieu) [2, 8] | % permeability ARPE19 [2, 12] [%] | p < 0.05 (ARPE19 permeability versus diabetic milieu) [2, 13] | Antiproliferative effects on human primary cells [3] | Cytotoxicity in BioMap Plus [3] | Immunomodulatory activities [3] | Inflammation-related activities [3] | Number of annotated readouts [3] | Tissue remodeling activities [3] | Blood glucose level [4] | p < 0.05 (HREC permeability versus diabetic milieu) [1, 13]
1 | O=C(O)c1cc(NC(=O)c2cc(O)c(C(=O)Nc3ccc(O)c(C(=O)O)c3)cc2O)ccc1O [Ic-007a, 5-(4-(3-carboxy-4-hydroxyphenylaminocarbonyl)-2,5-dihydroxybenzamido)-2-hydroxy benzoic acid] | 126.3 ± 8.3 | 127.4 ± 2.1 | 111.6 ± 24.2 | * (* p < 0.05 for FITC dextran leakage measured after 90 min in [ng/mL/cm^2] in comparison with diabetic milieu (25 mM D-Gluose + VEGF, TNF-α, IL-β)) | 159.0 ± 23.9 | 75.2 ± 11.1 | 107.3 ± 43.9 | 103.7 ± 15.7 | * (* p < 0.05 for FITC dextran leakage measured after 90 min in [ng/mL/cm^2] in comparison with diabetic milieu (25 mM D-Gluose + VEGF, TNF-α, IL-β)) | 127.1 ± 13.5 | * (* p < 0.05 for FITC dextran leakage measured after 90 min in [ng/mL/cm^2] in comparison with diabetic milieu (25 mM D-Gluose + VEGF, TNF-α, IL-β)) | antiproliferative to human primary T cells (30 μM) and fibroblasts (30 μM, 10 μM, 3.3 μM, 1.1 μM) | not cytotoxic | decreased CD40, M-CSF | decreased VCAM-1, sTNFα, MIP-1α, I-TAC, MIG; increased IL-8; modulated IP-10 | 20 | decreased Collagen I, Collagen IV, TIMP-1, tPA, Collagen III, PAI-1, uPAR, bFGF | – | –
2 | O=C(O)c1cc(O)c(C(=O)Nc2ccccc2C(=O)O)cc1O [Ia-001a, 4-(2-carboxyphenylaminocarbonyl)-2,5-dihydroxybenzoic acid] | – | – | – | – | – | – | – | – | – | – | – | – | – | – | – | – | – | significantly reduced | –
3 | O=C(O)c1cc(NC(=O)c2cc(O)cc(C(=O)Nc3ccc(O)c(C(=O)O)c3)c2O)ccc1O [IIc-007a, 5-(3-(3-carboxy-4-hydroxyphenylaminocarbonyl)-2,5-dihydroxybenzamido)-2-hydroxy benzoic acid] | 136.3 ± 16.7 | 147.7 ± 17.6 | 135.8 ± 16.6 | * (* p < 0.05 for FITC dextran leakage measured after 90 min in [ng/mL/cm^2] in comparison with diabetic milieu (25 mM D-Gluose + VEGF, TNF-α, IL-β)) | 145.2 ± 8.8 | 66.1 ± 4.9 | 113.1 ± 11.4 | 114.7 ± 19.0 | * (* p < 0.05 for FITC dextran leakage measured after 90 min in [ng/mL/cm^2] in comparison with diabetic milieu (25 mM D-Gluose + VEGF, TNF-α, IL-β)) | 136.8 ± 13.0 | * (* p < 0.05 for FITC dextran leakage measured after 90 min in [ng/mL/cm^2] in comparison with diabetic milieu (25 mM D-Gluose + VEGF, TNF-α, IL-β)) | did not have any antiproliferative effects | not cytotoxic | decreased sIL-10, sIL-2 | decreased sTNFα, MIP-1α; increased IL-8; modulated MCP-1 | 12 | decreased Collagen I, Collagen IV, Collagen III, PAI-1 | – | –
4 | O=C(O)c1cc(O)c(CN(Cc2cc(O)c(C(=O)O)cc2O)Cc2cc(O)c(C(=O)O)cc2O)cc1O [IIIc-061a, Tris(4-carboxy-2,5-dihydroxyphenylmethyl)amine] | – | – | – | – | – | – | – | – | – | – | – | did not have any antiproliferative effects | not cytotoxic | decreased sIL-17A | decreased I-TAC, MIG | six | decreased Collagen I, Collagen III, PAI-1 | significantly reduced | –
5 | O=C(O)c1cc(O)cc(CS(=O)(=O)Cc2cc(O)cc(C(=O)O)c2O)c1O [IVc-059a, 3-((2,5-Dihydroxy-3-carboxyphenyl)methylsulfonylmethyl)-2,5-dihydroxybenzoic acid] | 109.9 ± 24.7 | 135.4 ± 6.7 | 124.0 ± 6.3 | * (* p < 0.05 for FITC dextran leakage measured after 90 min in [ng/mL/cm^2] in comparison with diabetic milieu (25 mM D-Gluose + VEGF, TNF-α, IL-β)) | 115.3 ± 14.7 | 70.2 ± 8.8 | 112.6 ± 19.8 | 98.5 ± 36.5 | * (* p < 0.05 for FITC dextran leakage measured after 90 min in [ng/mL/cm^2] in comparison with diabetic milieu (25 mM D-Gluose + VEGF, TNF-α, IL-β)) | 130.4 ± 24.8 | – | antiproliferative to human primary endothelial cells (1.1 μM) | not cytotoxic | decreased sIL-10, sIL-2 | decreased sTNFα | three | – | significantly reduced | * (* p < 0.05 for FITC dextran leakage measured after 90 min in [ng/mL/cm^2] in comparison with diabetic milieu (25 mM D-Gluose + VEGF, TNF-α, IL-β))
